Test results: PMC12472753, “Fused Imidazotriazole-Based Therapeutics: A Multidisciplinary Study Against Diabetes-Linked Enzymes Alpha-Amylase and Alpha-Glucosidase Using In Vitro and In Silico Methods” (Pharmaceuticals, 2025)

Key:
α-amylase = target: T1, α-amylase (Sus scrofa, UniProt P00690); test: Alpha-amylase inhibition assay (DNS method); assay type: biochemical; conditions: in vitro, triplicate; read-out: IC50 = α-Amylase µM ± SEM
T1 sequence (P00690 16-511): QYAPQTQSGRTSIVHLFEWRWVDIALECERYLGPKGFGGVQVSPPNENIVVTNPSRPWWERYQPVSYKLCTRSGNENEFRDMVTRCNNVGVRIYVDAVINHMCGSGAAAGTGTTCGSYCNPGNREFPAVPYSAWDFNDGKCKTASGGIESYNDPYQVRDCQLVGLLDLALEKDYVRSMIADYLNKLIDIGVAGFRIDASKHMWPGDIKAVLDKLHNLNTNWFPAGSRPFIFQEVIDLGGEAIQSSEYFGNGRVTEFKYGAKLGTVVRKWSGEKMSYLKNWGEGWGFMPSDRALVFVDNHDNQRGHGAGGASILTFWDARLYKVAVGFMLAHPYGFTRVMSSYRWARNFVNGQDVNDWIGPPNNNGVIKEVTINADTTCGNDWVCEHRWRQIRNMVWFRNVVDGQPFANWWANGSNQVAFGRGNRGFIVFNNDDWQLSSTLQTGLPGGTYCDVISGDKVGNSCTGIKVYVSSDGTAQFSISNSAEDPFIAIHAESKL
Description: The in vitro alpha-amylase study was conducted and the enzyme was sourced from Merck (Sigma-Aldrich, Hamburg, Germany). The inhibitory activity of the synthesized compounds against α-amylase was evaluated using a standard protocol with slight modifications [44]. In brief, 250 µL of the test compound (prepared at varying concentrations, 50–250 µg/mL) was mixed with 250 µL of starch solution [1% (w/v)] and 250 µL of α-amylase solution (1 U/mL). The reaction mixture was incubated at 20 °C for 3 min, after which enzymatic activity was terminated by the addition of 500 µL of dinitrosalicylic acid (DNS) color reagent. The mixture was then heated in a boiling water bath at 85 °C for 15 min, cooled to room temperature for 5 min, and diluted with 4.5 mL of distilled water to a final volume of 6.0 mL. Absorbance was measured at 540 nm using a UV-visible spectrophotometer. […] The percentage inhibition was calculated and all experiments were conducted in triplicate.

α-glucosidase = α-glucosidase (Saccharomyces cerevisiae, UniProt P53341); assay type: biochemical; conditions: in vitro, triplicate; read-out: IC50 = α-Glucosidase µM ± SEM
α-glucosidase, sequence (P53341 whole entry): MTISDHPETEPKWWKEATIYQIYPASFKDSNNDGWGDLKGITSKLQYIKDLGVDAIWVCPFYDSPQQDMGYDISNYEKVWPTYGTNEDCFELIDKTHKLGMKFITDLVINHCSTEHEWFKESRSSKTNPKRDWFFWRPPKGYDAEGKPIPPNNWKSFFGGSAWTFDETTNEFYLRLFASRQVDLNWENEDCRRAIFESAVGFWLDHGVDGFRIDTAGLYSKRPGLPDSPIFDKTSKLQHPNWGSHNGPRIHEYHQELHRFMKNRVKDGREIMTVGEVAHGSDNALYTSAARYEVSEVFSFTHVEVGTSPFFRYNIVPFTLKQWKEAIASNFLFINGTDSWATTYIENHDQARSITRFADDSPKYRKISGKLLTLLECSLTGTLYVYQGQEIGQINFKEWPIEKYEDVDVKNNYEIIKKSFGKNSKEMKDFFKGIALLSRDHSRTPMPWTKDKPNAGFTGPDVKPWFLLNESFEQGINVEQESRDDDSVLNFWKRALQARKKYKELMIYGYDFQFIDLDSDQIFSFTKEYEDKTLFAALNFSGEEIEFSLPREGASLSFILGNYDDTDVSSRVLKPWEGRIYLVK
Description: The in vitro alpha-glucosidase study was conducted and the enzyme was sourced from Merck (Sigma-Aldrich). The α-glucosidase inhibitory activity was determined following a standard microplate-based method [45]. In each well of a 96-well plate, 35 µL of phosphate buffer (pH 6.8), 31 µL of the test compound solution (50–250 µg/mL), and 18 µL of p-nitrophenyl-α-D-glucopyranoside (pNPG, substrate) were added and pre-incubated at 37 °C for 5 min. The reaction was initiated by the addition of 16 µL of α-glucosidase (0.15 U/mL in phosphate buffer), resulting in a total assay volume of 100 µL. After incubation, the reaction was terminated by adding 100 µL of sodium carbonate (200 mM), and absorbance was recorded at 405 nm using a microplate reader. […] The percentage inhibition was calculated according to the following equation: % inhibition=(Abs control − Abs sample)/Abs control×100
All assays were performed in triplicate to ensure reproducibility.

## 5-(2,4-Dihydroxy-5-methylphenyl)-6H-imidazo{1,2-b]{1,2,4]triazole-2-carboxylic acid [Compound 7]
α-amylase
  IC50: 7.1 ± 0.3 µM
α-glucosidase
  IC50: 7.7 ± 0.2 µM
